27 compounds from patent US8163777B2, “Benzimidazolyl-pyridine compounds for inflammation and immune-related uses” (Synta Pharmaceuticals Corp., priority 2006, dated 2012) can be followed below.

This assay concerns IL-2 production. As to the kind of experiment: Inhibition of IL-2 production in PHA-activated Jurkat cells (ELISA). It is filed as cell-based. The settings on record: Homo sapiens, PHA 2.5 μg/mL, 20 hours. The procedure: Jurkat cells were placed in a 96 well plate (0.5 million cells per well in 1% FBS medium) then test compounds of this invention were added at different concentrations. After 10 minutes, the cells were activated with PHA (final concentration 2.5 μg/mL) and incubated for 20 hours at 37° C. under CO2. The final volume was 200 μL. Following incubation, the cells were centrifuged and the supernatants collected and stored at −70° C. prior to assaying for IL-2 production. A commercial ELISA kit (IL-2 Eli-pair, Diaclone Research, Besancon, France) was used to detect production of IL-2, from which dose response curves were obtained. The IC50 value was calculated as the concentration at which 50% of maximum IL-2 production after stimulation was inhibited versus a non-stimulation control.
A general note: An ELISA detects its analyte on a solid surface through an enzyme-linked reagent.

The mark [1] stands for this setting: bin given with mixed units 500 nM-1 μM.

Where only a bound is given, the exact number is not on record here.

The term IC50 denotes the point on the concentration scale where inhibition reaches its midpoint. Read a low IC50 as greater potency. As for `COc1ccc2c(c1)nc(C(F)(F)F)n2-c1ccc(NC(=O)c2scnc2Br)nc1` [Compound 195, 4-Bromo-thiazole-5-carboxylic acid [5-(5-methoxy-2-trifluoromethyl-benzoimidazol-1-yl)-pyridin-2-yl]-amide], the half-inhibitory concentration (IC50) (binned values) was 100 to 500 nM.
Under setting [1], `O=C(Nc1ccc(-n2c(C(F)(F)F)nc3ccccc32)cc1)c1cccnc1` [Compound 45, N-[4-(2-trifiuoromethyl-benzoimidazol-1-yl)-phenyl]-nicotinamide] returned an IC50 of 500 to 1000 nM.
Regarding `O=C(Nc1ccc(-n2c(C(F)(F)F)nc3cccnc32)cc1)c1cccc(F)c1F` [Compound 44, 2,3-Difluoro-N-[4-(2-trifiuoromethyl-imidazo[4,5-b]pyrid-3-yl)-phenyl]-benzamide], the IC50 under setting [1] was in the range of 500 to 1000 nM.
With `CCCc1ccc(C(=O)Nc2ccc(-n3c(C(F)(F)F)nc4cc(OC)ccc43)cn2)cc1` [Compound 207, N-[5-(5-Methoxy-2-trifluoromethyl-benzoimidazol-1-yl)-pyridin-2-yl]-4-propyl-benzamide], the 50% inhibitory concentration (IC50) (binned values) is > 1000 nM.
In turn, `COc1ccc(CC(=O)Nc2ccc(-n3c(C(F)(F)F)nc4cc(OC)ccc43)cc2)cc1` [Compound 92, 2-(4-Methoxy-phenyl)-N-[4-(2-trifluoromethyl-5-methoxy-benzoimidazol-1-yl)-phenyl]-acetamide] gave an IC50 under setting [1] of 500 to 1000 nM.
`N#C/C(=C\c1ccc(-n2c(C(F)(F)F)nc3ccccc32)cc1)c1cccc(F)c1F` [Compound 47, 1-(2,3-difluoro-phenyl)-3-[4-(2-trifluoromethyl-benzoimidazol-1-yl)-phenyl]-acrylonitrile] displayed an IC50 under setting [1] of 500 to 1000 nM.
For the compound `COc1ccc2c(c1)nc(C(F)(F)F)n2-c1ccc(NC(=O)c2csnn2)nc1` [Compound 205, [1,2,3]Thiadiazole-4-carboxylic acid [5-(5-methoxy-2-trifluoromethyl-benzoimidazol-1-yl)-pyridin-2-yl]-amide], the IC50 (binned values) is > 1000 nM.
In the case of `COc1ccc2c(c1)nc(C(F)(F)F)n2-c1ccc(NC(=O)c2cccc(Cl)c2Cl)nc1` [Compound 174, 2,3-Dichloro-N-[5-(5-methoxy-2-trifluoromethyl-benzoimidazol-1-yl)-pyridin-2-yl]-benzamide], the IC50 (binned values) was < 100 nM.
With `COc1ccc2c(c1)nc(C(F)(F)F)n2-c1ccc(NC(=O)c2c(F)cccc2Cl)nc1` [Compound 173, 2-Chloro-6-fluoro-N-[5-(5-methoxy-2-trifluoromethyl-benzoimidazol-1-yl)-pyridin-2-yl]-benzamide], the IC50 (binned values) is < 100 nM.
Compound `N#C/C(=C\c1ccc(-n2c(C(F)(F)F)nc3ccccc32)cc1)c1cc(F)ccc1F` [Compound 48, 1-(2,5-difluoro-phenyl)-3-[4-(2-trifluoromethyl-benzoimidazol-1-yl)-phenyl]-acrylonitrile] came in with a half-inhibitory concentration (IC50) under setting [1] of 500 to 1000 nM.
In the case of `Cc1nc2ccccc2n1-c1ccc(NC(=O)c2cccc(F)c2F)cc1` [Compound 59, 2,3-Difluoro-N-[4-(2-methyl-benzoimidazol-1-yl)-phenyl]-benzamide], the IC50 (binned values) was > 1000 nM.
Under setting [1], `COc1ccc2c(c1)nc(C(F)(F)F)n2-c1ccc(NC(=O)Cc2cccs2)cc1` [Compound 94, 2-(Thien-2-yl)-N-[4-(2-trifluoromethyl-5-methoxy-benzoimidazol-1-yl)-phenyl]-acetamide] yielded an IC50 of 500 to 1000 nM.
`Nc1ccc(C(=O)Nc2ccc(-n3c(C(F)(F)F)nc4ccccc43)cc2)c(F)c1F` [Compound 43, 2,3-Difluoro-4-amino-N-[4-(2-trifluoromethyl-benzoimidazol-1-yl)-phenyl]-benzamide] yielded an IC50 under setting [1] of 500 to 1000 nM.
`O=C(Nc1cccc(F)c1F)c1ccc(-n2c(C(F)(F)F)nc3ccccc32)cc1` [Compound 46, N-(2,3-difluorophenyl)-4-(2-trifluoromethyl-benzoimidazol-1-yl)-benzamide] gave an IC50 under setting [1] of 500 to 1000 nM.
In the case of `Cc1cc2nc(C(F)(F)F)n(-c3ccc(NC(=O)c4cccc(F)c4F)cc3)c2cc1C` [Compound 42, 2,3-Difluoro-N-[4-(2-trifluoromethyl-5,6-dimethyl-benzoimidazol-1-yl)-phenyl]-benzamide], the IC50 under setting [1] was in the range of 500 to 1000 nM.
Consider `COc1ccc2c(c1)nc(C(F)(F)F)n2-c1ccc(NC(=O)c2cccc(N(C)C)c2)nc1` [Compound 208, 3-Dimethylamino-N-[5-(5-methoxy-2-trifluoromethyl-benzoimidazol-1-yl)-pyridin-2-yl]-benzamide], for which, under “binned values”, the IC50 is > 1000 nM.
For the setting “binned values”, `CCC(C)C(=O)Nc1ccc(-n2c(C(F)(F)F)nc3cc(OC)ccc32)cn1` (stereo not drawn) [Compound 168, N-[5-(5-Methoxy-2-trifluoromethyl-benzoimidazol-1-yl)-pyridin-2-yl]-2-methyl-butyramide] gave an IC50 of 100 to 500 nM.
In the case of `COc1ccc2c(c1)nc(C(F)(F)F)n2-c1ccc(NC(=O)c2csnc2C)nc1` [Compound 194, 3-Methyl-isothiazole-4-carboxylic acid [5-(5-methoxy-2-trifluoromethyl-benzoimidazol-1-yl)-pyridin-2-yl]-amide], the IC50 under setting [1] is 500 to 1000 nM.
Turning to `CCc1ccc(C(=O)Nc2ccc(-n3c(C(F)(F)F)nc4cc(OC)ccc43)cn2)cc1` [Compound 215, 4-Ethyl-N-[5-(5-methoxy-2-trifluoromethyl-benzoimidazol-1-yl)-pyridin-2-yl]-benzamide], under “binned values”, the IC50 is > 1000 nM.
In the case of `COc1ccc2c(c1)nc(C(F)(F)F)n2-c1ccc(NC(=O)c2ccc(N(C)C)cc2)nc1` [Compound 203, 4-Dimethylamino-N-[5-(5-methoxy-2-trifluoromethyl-benzoimidazol-1-yl)-pyridin-2-yl]-benzamide], the IC50 (binned values) was > 1000 nM.
On to `CCCC(=O)Nc1ccc(-n2c(C(F)(F)F)nc3cc(OC)ccc32)cn1` [Compound 167, N-[5-(5-Methoxy-2-trifluoromethyl-benzoimidazol-1-yl)-pyridin-2-yl]-butyramide], for which the IC50 (binned values) fell in the range of 100 to 500 nM.
In turn, `COc1ccc2c(c1)nc(C(F)(F)F)n2-c1ccc(NC(=O)c2cccc(F)c2)nc1` [Compound 186, 3-Fluoro-N-[5-(5-methoxy-2-trifluoromethyl-benzoimidazol-1-yl)-pyridin-2-yl]-benzamide] came in with a 50% inhibitory concentration (IC50) under setting [1] of 500 to 1000 nM.
As to `COc1ccc2c(c1)nc(C(F)(F)F)n2-c1ccc(NC(=O)c2cccc(I)c2)nc1` [Compound 181, 3-Iodo-N-[5-(5-methoxy-2-trifluoromethyl-benzoimidazol-1-yl)-pyridin-2-yl]-benzamide], the IC50 (binned values) is > 1000 nM.
On to `COc1ccc2c(c1)nc(C(F)(F)F)n2-c1ccc(NC(C)=O)nc1` [Compound 164, N-[5-(5-Methoxy-2-trifluoromethyl-benzoimidazol-1-yl)-pyridin-2-yl]-acetamide], for which the IC50 (binned values) was > 1000 nM.
As for `COc1ccc2c(c1)nc(C(F)(F)F)n2-c1ccc(NC(=O)c2ccc(C)cc2)nc1` [Compound 211, N-[5-(5-Methoxy-2-trifluoromethyl-benzoimidazol-1-yl)-pyridin-2-yl]-4-methyl-benzamide], the IC50 (binned values) is > 1000 nM.
`COc1ccc2c(c1)nc(C(F)(F)F)n2-c1ccc(NC(=O)c2ccc(I)cc2)nc1` [Compound 182, 4-Iodo-N-[5-(5-methoxy-2-trifluoromethyl-benzoimidazol-1-yl)-pyridin-2-yl]-benzamide] showed an IC50 under setting [1] of 500 to 1000 nM.
Take `COc1ccc2c(c1)nc(C(F)(F)F)n2-c1ccc(NC(=O)c2ccccc2OC)nc1` [Compound 206, 2-Methoxy-N-[5-(5-methoxy-2-trifluoromethyl-benzoimidazol-1-yl)-pyridin-2-yl]-benzamide]: the IC50 (binned values) was > 1000 nM.
